# Patent US20100221736A1, “METHOD FOR PREDICTING SUSCEPTIBILITY TO A MENTAL DISORDER” (priority 2007, published 2010)
# Columns and labels:
# Type in all cases: cell-based, human
# [1] = tested on: GCLM; experiment: GCLM protein expression by Western Blot in skin fibroblasts after t-BHQ treatment; conditions: for increase of GCLM protein expression induced by t-BHQ treatment: t-BHQ vs baseline; for GCLM protein expression: t-BHQ treated (50 μM, 18 h)
# Method: (§1) Human fibroblast cultures were established from skin biopsies as described in Tosic et al.[8] Cells were grown with DMEM medium (0.5 l medium completed with 10 ml Ultroser-G serum, 5 ml Penicillin/Streptomycin, 5 ml sodium pyruvate (100 mM)) at 37° C. in a humidified atmosphere containing 5% CO2/95% air. Human fibroblasts near confluence after five passages were treated for 18 h with 50 μM t-BHQ in 0.05% DMSO (t-BHQ condition) or 0.05% DMSO alone (baseline condition). Cell lysis was performed on ice. Cells were washed with PBS and scraped with lysis buffer (2.37 ml scraping buffer (Tris-HCl 50 mM, pH 7.2; NaCl 150 mM; NaF 10 mM; EDTA 2 mM; EGTA 2 mM; Triton X100 1%); 100 μl Complete (1 tablet/2 ml H2O); 25 μl PMSF 100 mM; 2.5 μl DTT 1 mM). Lysates were homogenized 10 times with a 25-gauge needle, and cellular debris were cleared by centrifugation (20,000 g, 14 min, 4° C.). Protein concentration was determined by BCA protein assay. Equal amounts of protein (50 μg) were dissolved in 5× Laemmli sample buffer, separated by 12% SDS-PAGE, and electro-transferred to a PVDF membrane. Membranes were blocked (BSA 1%/milk powder 3%) overnight at 4° C. Following incubation with primary and secondary antibodies, protein was visualized by using the ECL detection system and protein abundance was quantified by densitometry analysis (Multi Genius, Bio Imaging System, Syngene). A fibroblast protein pool from 5 different individuals was used as an external control in all experiments. The results were normalized to a -Tubulin, and reported relative to the specific protein levels measured in the protein pool.
# [2] = tested on: glutamate cysteine ligase (GCL); experiment: GCL activity in cultured skin fibroblasts after t-BHQ treatment; conditions: for increase of GCL activity after t-BHQ treatment (factor): t-BHQ vs baseline
# Method: (§2) Human fibroblast cultures were established from skin biopsies as described in Tosic et al.[8] Cells were grown with DMEM medium (0.5 l medium completed with 10 ml Ultroser-G serum, 5 ml Penicillin/Streptomycin, 5 ml sodium pyruvate (100 mM)) at 37° C. in a humidified atmosphere containing 5% CO2/95% air. Human fibroblasts near confluence after five passages were treated for 18 h with 50 μM t-BHQ in 0.05% DMSO (t-BHQ condition) or 0.05% DMSO alone (baseline condition). Cells were washed once with phosphate-buffer saline (PBS), trypsinized and pelleted. The pellet was washed once, taken up into PBS and frozen. GSH content and GCL activity was determined in protein extracts from fibroblasts cultures, with a fluorescence-based microtiter plate assay according to White and colleagues [White et al, 2003]. GCL activity was determined as the difference between GSH synthesis in unblocked and GSH synthesis in BSO treated wells per min and per mg protein. Protein concentration has been determined by BCA protein assay. In addition, GSH contents under untreated conditions were also routinely measured in all participants that had spent skin fibroblasts (33 controls and 39 patients) by a colorimetric GSH assay kit (Calbiochem, San Diego, USA).
# [3] = tested on: GCLC; experiment: GCLC protein expression by Western Blot in skin fibroblasts after t-BHQ treatment; conditions: for increase of GCLC protein expression by t-BHQ treatment (factor): t-BHQ vs baseline
# Method: as §1
# [4] = tested on: skin fibroblasts; experiment: GSH content in cultured skin fibroblasts after t-BHQ treatment; conditions: for GSH content: t-BHQ treated (50 μM, 18 h)
# Method: as §2
# [5] = fibroblasts of control subjects
# [6] = fibroblasts of schizophrenia patients
# [7] = t-BHQ treatment, subjects with GCLC GAG TNR genotypes 7/7 & 7/9
# [8] = t-BHQ treatment, subjects with genotypes 7/8, 8/8, 8/9 & 9/9
compound,measurement,setting,value
"CC(C)(C)c1cc(O)ccc1O [t-BHQ, tert-butylhydroquinone]",increase of GCLM protein expression induced by t-BHQ treatment,[1]; control subjects,73%
same,increase of GCLM protein expression induced by t-BHQ treatment,[1]; patients,74%
same,GCLM protein expression,[1]; [5],108.0 ± 24.0 α-Tubulin corrected arbitrary units
same,GCLM protein expression,[1]; [6],107.6 ± 24.1 α-Tubulin corrected arbitrary units
same,increase of GCL activity after t-BHQ treatment (factor),[2]; controls,3.45
same,increase of GCL activity after t-BHQ treatment (factor),[2]; patients,2.95
same,GCL activity,"[2]; t-BHQ treated (50 μM, 18 h), fibroblasts of control subjects, average and standard deviation",0.847 ± 0.26 nmol GSH/min/mg protein
same,GCL activity,"[2]; t-BHQ treated (50 μM, 18 h), fibroblasts of schizophrenia patients, average and standard deviation",0.627 ± 0.16 nmol GSH/min/mg protein
same,GCL activity,[2]; [7],0.784±0.246
same,GCL activity,[2]; [8],0.584±0.141
same,increase of GCLC protein expression by t-BHQ treatment (factor),[3]; controls,1.44
same,increase of GCLC protein expression by t-BHQ treatment (factor),[3]; patients,1.32
same,GCLC protein expression,"[3]; t-BHQ treated (50 μM, 18 h), fibroblasts of control subjects",64.1 ± 17.5 α-Tubulin corrected arbitrary units
same,GCLC protein expression,"[3]; t-BHQ treated (50 μM, 18 h), fibroblasts of schizophrenia patients",45.4 ± 15.8 α-Tubulin corrected arbitrary units
same,GCLC protein expression,[3]; [7],58.9±19.0
same,GCLC protein expression,[3]; [8],45.6±13.3
same,GSH content,[4]; [5],144.9 ± 21.5 nmol GSH/mg protein
same,GSH content,[4]; [6],136.3 ± 19.1 nmol GSH/mg protein
same,increase of GSH content after t-BHQ treatment (factor),"[4]; very similar in patients and controls, t-BHQ vs baseline",2.53
